# In BindingDB's records for patent US20240124479 (Shanghai Meiyue Biotech Development Co., 2024):
# Biological target: T1, Pantetheinase (Homo sapiens, UniProt O95497)
# T1 sequence (O95497 whole entry): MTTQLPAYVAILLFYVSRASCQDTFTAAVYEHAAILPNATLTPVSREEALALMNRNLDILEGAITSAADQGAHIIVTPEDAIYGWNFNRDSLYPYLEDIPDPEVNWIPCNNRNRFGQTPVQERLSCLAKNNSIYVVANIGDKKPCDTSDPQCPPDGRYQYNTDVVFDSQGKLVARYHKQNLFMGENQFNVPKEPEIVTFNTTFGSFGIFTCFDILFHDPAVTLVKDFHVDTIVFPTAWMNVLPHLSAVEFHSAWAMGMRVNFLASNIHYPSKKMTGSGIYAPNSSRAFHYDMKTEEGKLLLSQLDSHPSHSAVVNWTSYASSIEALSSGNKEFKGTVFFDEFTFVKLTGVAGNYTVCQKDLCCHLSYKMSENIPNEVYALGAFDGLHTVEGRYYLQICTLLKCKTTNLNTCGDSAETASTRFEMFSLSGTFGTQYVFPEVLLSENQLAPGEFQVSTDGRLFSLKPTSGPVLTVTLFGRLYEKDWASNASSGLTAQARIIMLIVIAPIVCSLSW
# Assay: Vanin-1 Recombinant Enzyme Activity Inhibition Assay
# Procedure: A certain mass of the compound was weighed precisely, and prepared with DMSO and reaction buffer (50 mM Tris base, 50 mM KCl, 1.6 mM cysteamine, 0.005% Brij 35, pH 8.0, prepared when using) to a maximum concentration of 10000 nM, then diluted in a 4-fold gradient, and prepared into 10 compound working solutions with different concentrations;for the activity inhibition reaction of recombinant human Vanin-1 (Biorab, JN0618), 2.5 μL of compound working solution and 5 μL of recombinant human Vanin-1 protein were first mixed.
row,Compound,IC50 [nM]
1,"CC(=O)N(C)[C@H]1CCN(C(=O)c2cnc(N[C@H](C)c3ccc(C(F)(F)F)cc3F)nc2)C1 [US20240124479, Compound 41-P2]",0.3
2,"O=C(c1cnc(NCc2ccc(F)cc2F)nc1)N1CCC2(CCOCC2)C1 [US20240124479, Compound 12]",17
3,"CC(=O)N(C)[C@H]1CCN(C(=O)c2cnc(NC(C)c3ccc(C(F)(F)F)cc3F)nc2)C1 (stereo not given in full) [US20240124479, Compound 41]",0.2
4,"C[C@H](Nc1ncc(C(=O)N2CCC3(CCOCC3)C2)cn1)c1ccc(C(F)(F)F)cc1Cl [US20240124479, Compound 29]",0.4
5,"CC(=O)N(C)[C@H]1CCN(C(=O)c2cnc(NC(C)c3ccc(F)cc3Cl)nc2)C1 (stereo not given in full) [US20240124479, Compound 39]",1.8
6,"CC(Nc1ncc(C(=O)N2CCC3(CCOCC3)C2)cn1)c1ccccc1 (stereo not given) [US20240124479, Compound 6]",6
7,"CC(Nc1ncc(C(=O)N2CCC3(CCOCC3)C2)cn1)c1ccc(OC(F)F)cc1Cl (stereo not given) [US20240124479, Compound 27]",0.4
8,"CC(=O)N(C)[C@H]1CCN(C(=O)c2cnc(NC(C)c3c(F)cccc3C(F)(F)F)nc2)C1 (stereo not given in full) [US20240124479, Compound 38]",0.1
9,"C[C@@H](Nc1ncc(C(=O)N2CCC3(CCOCC3)C2)cn1)c1ccc(C(F)(F)F)cc1Cl [US20240124479, Compound 28]",0.8
10,"O=C(c1cnc(NCc2ccccc2)nc1)N1CCC2(CCOCC2)C1 [US20240124479, Compound 5]",65
